Literature values as cited in patent publication US6846495B2, “Compositions having improved delivery of actives” (The Procter & Gamble Company, priority 1999, dated 2005).

Details: intranasal formulations

For `COc1ccc2c(c1)[C@@]13CCCC[C@H]1[C@@H](C2)N(C)CC3` [Dextromethorphan, 3-methoxy-17-methylmorphinan], the bioavailability is listed as “substantial increases in bioavailability”.
